Test results: US12617777B2, “GPR84 antagonists and uses thereof” (Liminal BioSciences Limited, priority 2021, dated 2026)

Tests used:
[1] = system: neutrophils; experiment: Neutrophil migration assay (embelin as chemotactic agent, ATPlite readout); format: cell-based; details: for IC50: Neutrophil, human neutrophils, embelin as chemotactic agent, read-out: Human Neutrophil migration inhibition IC50; for Human Neutrophil migration inhibition - fold potency to Control Compound: normalized to GPR84 antagonist Control Compound (average IC50 131 nM)
Procedure: Neutrophil migration assay. After isolation, neutrophils were resuspended in chemotaxis buffer (DMEM supplemented with 10 mM HEPES) at a concentration of 8.9×10^6 cells/ml. In a 96-well plate, 20 μl of compound solution in chemotaxis buffer is added to 180 μl of cell suspension. After incubation at 37° C. for 30 minutes, 75 μl of cell suspension is transferred in the upper chamber of a 5 μm pore size Corning HTS transwell. 235 μl of chemotaxis buffer containing the chemotactic agent (embelin) is added to the lower chamber of the transwell. After a 60-minute incubation time at 37° C. in 5%0 C02, the upper chamber of the transwell is removed and the plate is centrifuged at 1500 rpm for 6 minutes. Supermatant is removed and cells resuspended in 100 ul of PBS. ATP content was assessed using ATPlite Luminescence Assay System® according to manufacturer instructions (Perkin Elmer, Buckinghamshire, UK). Briefly, 50 μl of ATPlite buffer and 50 μl of lysis solution is added to the lower chamber of the Transwells. After incubation at room temperature, in the dark with constant agitation for 5 minutes, 150 μl of cell lysate is transferred in a 96 wells white plate and incubated for 10 minutes in the dark. Luminescence is read on a TECAN plate reader, Infinite M1000 (Tecan, Morrisville, NC).
The compound numbers correspond to the compound numbers in Table 1. […] Normalization of the results takes the donor's variation into account.

[2] = target: T1, human GPR84 receptor (Homo sapiens, UniProt Q9NQS5); experiment: Gαi biosensor BRET assay in HEK293 cells (antagonism of ZQ-16); format: cell-based; details: for inhibition at 10 µM: HEK293, single concentration 10 μM (designated F); for IC50: HEK293 cells, antagonism of 200 nmol/L ZQ-16; for inhibition at 2 µM: HEK293, single concentration 2 μM (designated A); for inhibition at 25 µM: HEK293, single concentration 25 μM (designated I)
T1 construct: host or cells: HEK293, transient transfection
Method in brief: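 Antagonist mode: test compound 5 min at 37° C, followed by ZQ-16 agonist (200 nmol/L, 5 min, room temperature), in HEK293 cells transfected with GPR84 plus Rluc8-tagged Gαi2, GFP10-Gγ2 and Gβ1. Readout as GFP10/Rluc8 emission ratio after 5 μmol/L coelenterazine 400A, net of Rluc8-only and vehicle signal.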

T1 sequence (Q9NQS5 whole entry): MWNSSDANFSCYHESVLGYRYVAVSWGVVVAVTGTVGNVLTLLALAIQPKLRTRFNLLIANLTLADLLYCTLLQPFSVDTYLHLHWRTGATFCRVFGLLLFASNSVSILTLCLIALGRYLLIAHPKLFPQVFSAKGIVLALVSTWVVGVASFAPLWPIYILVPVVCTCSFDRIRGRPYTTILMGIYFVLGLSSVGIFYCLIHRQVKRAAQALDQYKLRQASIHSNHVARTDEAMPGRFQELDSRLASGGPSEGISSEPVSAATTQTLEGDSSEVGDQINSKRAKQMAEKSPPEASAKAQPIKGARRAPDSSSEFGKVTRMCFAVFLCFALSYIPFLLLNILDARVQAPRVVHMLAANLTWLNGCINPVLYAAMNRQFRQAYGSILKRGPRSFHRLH

Row | Structure (SMILES) | IC50 [1] | Human Neutrophil migration inhibition - fold potency to Control Compound [1] | inhibition at 10 µM [2] | IC50 [2] | inhibition at 2 µM [2] | inhibition at 25 µM [2] | inhibition at 1 µM ([2]; HEK293, single concentration 1 μM (designated A°))
1 | Cc1cc(C#CCN(C)CC2CC2)ccc1-c1cn(CC2CCCCO2)nn1 (stereo not drawn) [Compound I-121] | 300 to 1000 nM | C (IC50≤0.5-fold relative to Control Compound) | > 75% | 300 to 1000 nM | – | – | –
2 | Cc1cc(C#CCN(C)CC2(C(F)(F)F)CC2)ccc1-c1cn(CC2CCCCO2)nn1 (stereo not drawn) [Compound I-138] | 1000 to 3000 nM | C (IC50≤0.5-fold relative to Control Compound) | 50 to 75% | 1000 to 3000 nM | – | – | –
3 | Cc1ccc(C#CC2CC2)cc1-n1nc(CC2CCCO2)oc1=O (stereo not drawn) [Compound I-17] | ≤ 300 nM | B (IC50 of >0.5-≤1.0-fold relative to Control Compound) | > 75% | 300 to 1000 nM | – | – | –
4 | Cc1cc(N2CCN(Cc3ccccn3)CC2)ccc1-c1cn(C[C@H]2CCC(F)(F)CO2)nn1 (stereo in doubt) [Compound I-635] | 300 to 1000 nM | C (IC50≤0.5-fold relative to Control Compound) | 50 to 75% | ≤ 300 nM | – | – | –
5 | Cc1cc(N2CCN(Cc3ccccn3)CC2)ccc1-c1cn(CC2CC(C)(C)CO2)nn1 (stereo not drawn) [Compound I-530] | ≤ 300 nM | A (IC50 of >1.0-fold relative to Control Compound) | > 75% | ≤ 300 nM | – | – | –
6 | Cc1cc(C#CC2CC2)cnc1-c1cn(CC2CCCCO2)nn1 (stereo not drawn) [Compound I-107] | ≤ 300 nM | A (IC50 of >1.0-fold relative to Control Compound) | > 75% | 1000 to 3000 nM | – | – | –
7 | CO[C@H](c1cn(C[C@@H]2CCCCO2)nn1)c1cc(C#CC2CC2)ccc1C [Compound I-512] | ≤ 300 nM | C (IC50≤0.5-fold relative to Control Compound) | – | 300 to 1000 nM | > 75% | – | –
8 | CCc1cc(C#CCNc2cccnc2)cnc1-c1cn(C[C@H]2CCCCO2)nn1 [Compound I-535] | ≤ 300 nM | B (IC50 of >0.5-≤1.0-fold relative to Control Compound) | > 75% | ≤ 300 nM | – | – | –
9 | Cc1cc(N2CC(C)(C)C2)ccc1-c1cn(CC2CCCCO2)nn1 (stereo not drawn) [Compound I-75] | ≤ 300 nM | B (IC50 of >0.5-≤1.0-fold relative to Control Compound) | – | 300 to 1000 nM | – | > 75% | –
10 | Clc1cc(C#CC2CC2)ccc1-c1cn(CC2CCCCO2)nn1 (stereo not drawn) [Compound I-315] | 300 to 1000 nM | C (IC50≤0.5-fold relative to Control Compound) | – | > 3000 nM | – | > 75% | –
11 | Cc1cc(C#CCNC(=O)OC(C)(C)C)ccc1-c1cn(CC2CCCCO2)nn1 (stereo not drawn) [Compound I-177] | ≤ 300 nM | A (IC50 of >1.0-fold relative to Control Compound) | 50 to 75% | 1000 to 3000 nM | – | – | –
12 | Cc1cc(N2CC(C)(CNc3ccccc3)C2)ccc1-c1cn(CC2CCCCO2)nn1 (stereo not drawn) [Compound I-411] | 300 to 1000 nM | B (IC50 of >0.5-≤1.0-fold relative to Control Compound) | > 75% | ≤ 300 nM | – | – | –
13 | Cc1cc(N2CCN([C@@H](C)c3ccccn3)CC2)ccc1-c1cn(C[C@H]2CCCCO2)nn1 [Compound I-612] | ≤ 300 nM | A (IC50 of >1.0-fold relative to Control Compound) | > 75% | 300 to 1000 nM | – | – | –
14 | Cc1cc(N2CC(C)(CNc3ccccn3)C2)ccc1-c1cn(CC2CCCCO2)nn1 (stereo not drawn) [Compound I-464] | ≤ 300 nM | C (IC50≤0.5-fold relative to Control Compound) | – | 300 to 1000 nM | > 75% | – | –
15 | CCc1cc(C#CCO)ccc1-c1cn(CC2OCC(C)(C)CO2)nn1 [Compound I-620] | ≤ 300 nM | A (IC50 of >1.0-fold relative to Control Compound) | > 75% | ≤ 300 nM | – | – | –
16 | CC(C)c1cc(C#CCN2CC(C)(C)C2)cnc1-c1cn(CC2CCCCO2)nn1 (stereo not drawn) [Compound I-462] | ≤ 300 nM | C (IC50≤0.5-fold relative to Control Compound) | > 75% | 1000 to 3000 nM | – | – | –
17 | Cc1cc(C#CC(C)(C)C)ccc1-c1cn(CC2CCCCO2)nn1 (stereo not drawn) [Compound I-67] | 300 to 1000 nM | B (IC50 of >0.5-≤1.0-fold relative to Control Compound) | – | 1000 to 3000 nM | – | – | –
18 | CC(C)Oc1cc(C#CC2CC2)ccc1-c1cn(CC2CCCCO2)nn1 (stereo not drawn) [Compound I-187] | ≤ 300 nM | B (IC50 of >0.5-≤1.0-fold relative to Control Compound) | – | > 3000 nM | – | – | –
19 | Cc1cc(N2CC3(CCCN3Cc3ccccc3)C2)ccc1-c1cn(CC2CCCCO2)nn1 (stereo not drawn) [Compound I-149] | 1000 to 3000 nM | C (IC50≤0.5-fold relative to Control Compound) | – | – | 25 to 50% | – | –
20 | CN(C)c1cc(C#CCNCc2ccccc2)ccc1-c1cn(CC2CCCCO2)nn1 (stereo not drawn) [Compound I-188] | ≤ 300 nM | A (IC50 of >1.0-fold relative to Control Compound) | – | > 3000 nM | – | – | –
21 | CN(C)c1cc(N2CC(C)(CO)C2)ccc1-c1cn(C[C@H]2CC(C)(C)CO2)nn1 (stereo in doubt) [Compound I-588] | ≤ 300 nM | A (IC50 of >1.0-fold relative to Control Compound) | – | ≤ 300 nM | – | – | > 75%
22 | Cc1cc(C#CC(C)C)ccc1-c1cn(CC2CCCCO2)nn1 (stereo not drawn) [Compound I-66] | 1000 to 3000 nM | C (IC50≤0.5-fold relative to Control Compound) | – | > 3000 nM | – | – | –
23 | CN(C)c1cc(N2CC(C)(CO)C2)ccc1-c1cn(CC2CC(C)(C)CO2)nn1 (stereo not drawn) [Compound I-499] | ≤ 300 nM | A (IC50 of >1.0-fold relative to Control Compound) | > 75% | 300 to 1000 nM | – | – | –
24 | CC(C)Oc1cc(C#CC2CC(F)(F)C2)cnc1-c1cn(CC2OCC(C)(C)CO2)nn1 [Compound I-650] | ≤ 300 nM | A (IC50 of >1.0-fold relative to Control Compound) | – | 300 to 1000 nM | > 75% | – | –
25 | Cc1cc(C#CCn2cc(-c3ccc([N+](=O)[O-])cc3)nn2)ccc1-c1cn(CC2CCCCO2)nn1 (stereo not drawn) [Compound I-454] | ≤ 300 nM | A (IC50 of >1.0-fold relative to Control Compound) | > 75% | ≤ 300 nM | – | – | –
26 | CC(C)c1cc(C#CC2CC2)ccc1-c1cn(CC2CCCCO2)nn1 (stereo not drawn) [Compound I-88] | 1000 to 3000 nM | C (IC50≤0.5-fold relative to Control Compound) | – | 1000 to 3000 nM | – | – | –
27 | CCc1cc(C#CCNC(=O)OC(C)(C)C)ccc1-c1cn(CC2CCCCO2)nn1 (stereo not drawn) [Compound I-572] | ≤ 300 nM | A (IC50 of >1.0-fold relative to Control Compound) | > 75% | 300 to 1000 nM | – | – | –
